Results from patent publication US20230310334A1, “LIPID NANOPARTICLE” (SHENZHEN SHENXIN BIOTECHNOLOGY CO., LTD., priority 2020, published 2023).

Test system: luciferase mRNA (Fluc mRNA) expression
Assay: Luciferase mRNA delivery performance in vivo of lipid nanoparticles prepared from amino lipid compounds (IVIS imaging)
Design: species or system BALB/c mice
Conditions: for Average fluorescence intensity (intramuscular) / Average fluorescence intensity (subcutaneous) / Average fluorescence intensity (tail vein): Fluc mRNA LNP, 0.5 mg/kg, imaging 6 hours after injection, male BALB/c mice; for Average fluorescence intensity (intramuscular) / Average fluorescence intensity (subcutaneous): preparation process I (DOPE); for Average fluorescence intensity (tail vein): preparation process II (DSPC); for delivery capacity after introduction of the alkynyl group: in vivo delivery, compared with corresponding amino lipid compounds without alkynyl group (36, 37)
Protocol: Example 40: Evaluation of Luciferase mRNA Delivery Performance In Vivo of Lipid Nanoparticles Prepared from Amino Lipid Compounds
Preparation of lipid nanoparticles:
Preparation process I: The amino lipid compound described in the present invention and DOPE, cholesterol, PEG2000-DMG were mixed and dissolved in absolute ethanol in a molar ratio of 45:10:42.5:2.5. Two microinjection pumps were used, and the ratio of ethanol solution to sodium acetate solution (50 mM, pH=4.0) was controlled to be 1:3. A crude solution of lipid nanoparticles was prepared in a micro flow channel chip, then dialyzed for 6 hours with 1×PBS at a controlled temperature of 4° C. by using a dialysis cassette (Fisher, MWCO 20,000), and filtered with a 0.22 μm microporous filter membrane before use. The mass ratio of the amino lipid compound to luciferase mRNA (Fluc mRNA) was about 10:1. The administration route included subcutaneous and intramuscular injections.
Preparation process II: the molar ratio of amino lipid compound to DSPC, cholesterol, PEG2000-DMG was 50:10:38.5:1.5, and the preparation process was identical to the preparation process I. The administration route was tail vein administration.
Animal preparation: 6-week-old male BALB/c mice with body weights of about 20 g were selected, and fed in an SPF-grade feeding room. Animal experiments were strictly carried out according to the guidelines of the national health institution and the requirements of animal ethics. In vivo delivery: 9 mice were randomly selected per group and injected with lipid nanoparticles at a dose of 0.5 mg/kg by three administration routes: subcutaneous, intramuscular, and tail vein, respectively (three animals per administration route). After 6 hours, […] of 10 mg/mL potassium […] was injected into each mouse via the tail vein, and after 10 minutes, the mice were placed under an in vivo imaging system (IVIS-200, Xenogen), and the total fluorescence intensity of each mouse was observed and recorded by photographing. The expression intensities of Fluc mRNA delivered by the three administration routes of representative amino lipid compounds were shown in Tables 1-3. DLin-MC3 was used as a control.

| SMILES | Average fluorescence intensity (intramuscular) | Average fluorescence intensity (subcutaneous) | Average fluorescence intensity (tail vein) | delivery capacity after introduction of the alkynyl group |
| --- | --- | --- | --- | --- |
| CCCC#CCCCOC(=O)CCCCCCCN(CCCCCCCC(=O)OC(CCCCCCCC)CCCCCCCC)CCCN1CCOCC1 [Compound 32] | 2.8E+07 | 7.1E+05 |  |  |
| CCCCC#CCCOC(=O)CCCCCCCN(CCCO)CCCCCCCC(=O)OC(CCCCCCCC)CCCCCCCC [Compound 5] |  | 7.1E+06 |  |  |
| CCCCCC#CCCCOC(=O)CCCCCCCN(CCCCCCCC(=O)OC(CCCCCC)CCCCCCCC)C1CCC(O)C1 (stereo not drawn) [Compound 20] | 5.2E+05 | 3.7E+07 |  |  |
| CCCCCCCCCOC(=O)CCCCCCCN(CCCCCCCC(=O)OC(CCCCCCCC)CCCCCCCC)CCCN(C)C [Compound 37, reference compound] | 2.5E+06 | 2.0E+05 |  |  |
| CCCCCCCCCOC(=O)CCCCCCCN(CCCCO)CCCCCCCC(=O)OC(CCCCCCCC)CCCCCCCC [Compound 36, reference compound] |  | 1.1E+05 | 4.2E+05 |  |
| CCCCCCCCCC#CC(=O)OCCCCCCCN(CCCO)CCCCCCCOC(=O)C(CCCCCC)CCCCCCCC (stereo not drawn) [Compound 29] | 1.8E+07 | 8.1E+06 |  |  |
| CCCCCC#CCCCOC(=O)CCCCCCCN(CCCCCCCC(=O)OC(CCCCCCCC)CCCCCCCC)C1CCC(O)CC1 (stereo not drawn) [Compound 21] | 1.1E+07 | 4.1E+06 |  |  |
| CCCCC#CCCCOC(=O)CCCCCCCN(CCCCCCCC(=O)OC(CCCCCCCC)CCCCCCCC)CCCNC(=O)CCCCC [Compound 34] | 4.8E+06 | 5.3E+05 |  |  |
| CCCCC/C=C\C/C=C\CCCCCCCCC(CCCCCCCC/C=C\C/C=C\CCCCC)OC(=O)CCCN(C)C [Compound 35, (6Z,9Z,28Z,31Z)-heptatriacont-6,9,28,31-tetraene-19-yl 4-(N,N-dimethylamino)butanoate, reference compound] | 3.9E+03 | 4.1E+04 | 6.2E+06 |  |
| CCCCC#CCCCOC(=O)CCCCCCCN(CCCCCCCC(=O)OC(CCCCCCCC)CCCCCCCC)CCCN(C)C [Compound 31] | 1.5E+07 | 5.1E+05 |  | significantly enhanced |
| CCCC#CCCCOC(=O)CCCCCCCN(CCCO)CCCCCCCC(=O)OC(CCCCCCCC)CCCCCCCC [Compound 8] | 2.1E+07 | 7.1E+06 | 6.1E+06 |  |
| CCCCCCC#CCOC(=O)CCCCCCCN(CCO)CCCCCCCC(=O)OC(CCCCCCCC)CCCCCCCC [Compound 13] | 2.1E+06 | 2.6E+07 |  |  |
| CCCCC#CCCCOC(=O)CCCCCCCCCN(CCCCO)CCCCCCCC(=O)OC(CCCCCCCC)CCCCCCCC [Compound 23] | 2.7E+05 |  | 6.1E+07 |  |
| CCCCCCC#CCCCOC(=O)CCCCCCCN(CCCO)CCCCCCCC(=O)OC(CCCCCCCC)CCCCCCCC [Compound 11] | 2.1E+06 | 2.1E+05 | 5.1E+07 |  |
| CCCCCCC#CCCOC(=O)CCCCCCCN(CCCO)CCCCCCCC(=O)OC(CCCCCCCC)CCCCCCCC [Compound 7] | 4.1E+05 | 2.1E+05 | 8.1E+06 |  |
| CCCCCC#CCOC(=O)CCCCCCCN(CCO)CCCCCCCC(=O)OC(CCCCCCCC)CCCCCCCC [Compound 12] | 2.1E+06 | 3.2E+07 |  |  |
| CCCCCC#CCCCOC(=O)CCCCCCCN(CCCCCCCC(=O)OC(CCCCCCCC)CCCCCCCC)C1CCC(O)C1 (stereo not drawn) [Compound 19] | 2.1E+05 |  | 9.1E+06 |  |
| CCCCC#CCCCOC(=O)CCCCN(CCCO)CCCCCCCC(=O)OCC(CCCCCC)CCCCCCCC (stereo not drawn) [Compound 28] | 6.1E+07 | 2.1E+06 |  |  |

| SMILES | Average fluorescence intensity (intramuscular) | Average fluorescence intensity (subcutaneous) | Average fluorescence intensity (tail vein) | delivery capacity after introduction of the alkynyl group |
| --- | --- | --- | --- | --- |
| CCCCC#CCCCOC(=O)CCCCCCCCCCCCCN(CCCCO)CCCCCCCC(=O)OC(CCCCCCCC)CCCCCCCC [Compound 24] | 2.1E+05 |  | 7.8E+06 |  |
| CCCC#CCCCOC(=O)CCCCCCCN(CCCC#N)CCCCCCCC(=O)OC(CCCCCCCC)CCCCCCCC [Compound 30] | 1.1E+07 | 7.1E+06 |  |  |
| CCCCC#CCCCOC(=O)CCCCCCCN(CCCCCCCC(=O)OC(CCCCCCCC)CCCCCCCC)C1CC(O)C1 (stereo not drawn) [Compound 18] |  |  | 7.1E+07 |  |
| CCCCCCC#CCCOC(=O)CCCCCCCN(CCO)CCCCCCCC(=O)OC(CCCCCCCC)CCCCCCCC [Compound 14] | 4.1E+06 | 2.1E+06 | 1.1E+07 |  |
| CCCCC#CCCOC(=O)CCCCCCCN(CCCCO)CCCCCCCC(=O)OC(CCCCCCCC)CCCCCCCC [Compound 15] | 2.8E+07 | 3.1E+05 |  |  |
| CCCCCC#CCCOC(=O)CCCCCCCN(CCCCO)CCCCCCCC(=O)OC(CCCCCCCC)CCCCCCCC [Compound 16] | 1.4E+07 | 2.7E+06 |  |  |
| CCCCC#CCCCOC(=O)CCCCCCCN(CCCCCCCC(=O)OC(CCCCCCCC)CCCCCCCC)CCCOC(=O)CCCCC [Compound 33] | 1.1E+07 | 3.1E+06 |  |  |
| CCCCC#CCOC(=O)CCCCCCCN(CCCO)CCCCCCCC(=O)OC(CCCCCCCC)CCCCCCCC [Compound 1] |  | 1.4E+07 |  |  |
| CCCCCCC#CCOC(=O)CCCCCCCN(CCCO)CCCCCCCC(=O)OC(CCCCCCCC)CCCCCCCC [Compound 3] | 2.1E+06 | 2.1E+06 | 2.1E+07 |  |
| CCCCC#CCCCOC(=O)CCCCN(CCCCO)CCCCCCCC(=O)OC(CCCCCCCC)CCCCCCCC [Compound 22] | 3.1E+05 | 2.8E+07 |  |  |
| CCCCCC#CCCOC(=O)CCCCCCCN(CCCO)CCCCCCCC(=O)OC(CCCCCCCC)CCCCCCCC [Compound 6] | 2.1E+05 | 2.1E+06 |  |  |
| CCCCCC#CCOC(=O)CCCCCCCN(CCCO)CCCCCCCC(=O)OC(CCCCCCCC)CCCCCCCC [Compound 2] | 2.4E+06 | 1.1E+07 |  |  |
| CCCCC#CCCCOC(=O)CCCCCCCCCCCCCN(CCCO)CCCCCCCC(=O)OC(CCCC)CCCCCC (stereo not drawn) [Compound 26] | 6.1E+07 | 1.7E+06 |  |  |
| CCCCCCCC#CCOC(=O)CCCCCCCN(CCCO)CCCCCCCC(=O)OC(CCCCCCCC)CCCCCCCC [Compound 4] | 2.1E+06 | 2.1E+05 | 2.9E+07 |  |
| CCCCC#CCCCOC(=O)CCCCCCCN(CCCCO)CCCCCCCC(=O)OC(CCCCCCCC)CCCCCCCC [Compound 17] | 2.7E+06 | 2.5E+06 | 5.1E+07 | significantly enhanced |
| CCCCC#CCCCOC(=O)CCCCCCCN(CCCO)CCCCCCCC(=O)OC(CCCCCCCC)CCCCCCCC [Compound 9] | 5.1E+06 | 2.7E+06 | 2.8E+07 |  |
| CCCCCC#CCCCOC(=O)CCCCCCCN(CCCO)CCCCCCCC(=O)OC(CCCCCCCC)CCCCCCCC [Compound 10] | 2.1E+05 | 3.1E+05 | 2.5E+07 |  |
| CCCCC#CCCCOC(=O)CCCCCCCCCCCCCN(CCCO)CCCCCCCC(=O)OC(CCCC)CCCC [Compound 25] | 2.1E+05 | 2.6E+07 |  |  |
